These are literature values, as cited in patent US10702520B1, “Pharmaceutical compositions of posaconazole” (SLAYBACK PHARMA LLC, priority 2019, dated 2020).

Like-named read-outs stand apart in the source and are kept apart here.

In the case of `CC[C@@H]([C@H](C)O)n1ncn(-c2ccc(N3CCN(c4ccc(OC[C@@H]5CO[C@@](Cn6cncn6)(c6ccc(F)cc6F)C5)cc4)CC3)cc2)c1=O` [Posaconazole free base, 4-[4-[4-[4-[[(3R,5R)-5-(2,4-difluorophenyl)tetrahydro-5-(1H-1,2,4-triazol-1-ylmethyl)-3-furanyl]methoxy]phenyl]-1-piperazinyl]phenyl]-2-[(1S,2S)-1-ethyl-2-hydroxypropyl]-2,4-dihydro-3H-1,2,4-triazol-3-one], the solubility (usually how much of the substance goes into solution per volume) by setting is: (at gastric pH) “approximately 0.8 mg/mL”; (pH about 6.4 or higher) “less than 1 μg/mL”.

Turning to `CCC(C)n1ncn(-c2ccc(N3CCN(c4ccc(OC[C@H]5CO[C@](Cn6cncn6)(c6ccc(Cl)cc6Cl)O5)cc4)CC3)cc2)c1=O` (mixture of isomers) [Itraconazole], the solubility by setting is: (in 0.1 N Hydrochloric acid) 6 µg/mL; (in water) “less than 1 μg/mL”.
